Columns and labels:
[1] = test system: triple-negative breast cancer cells; settings: sequential but not simultaneous application of erlotinib and doxorubicin, time interval of about 24 hours; cited from earlier work
[2] = test system: CD95-HeLa cells; assay: Live-cell imaging with drug perfusion: CD95L-induced apoptosis under RL-optimized versus constant concentration trajectory; type: cell-based, human
Protocol: The experimental setup consisted of an automated live-cell microscope and infusion pumps for empty medium or CD95L stock solution placed inside a standard cell culture incubator. The microscope was combined with a surrounding, separable, autoclavable box for ensuring a sterile environment inside the incubator. Empty medium and the CD95L stock solution were guided through silicon tubes (inner diameter: 1 mm) connected to a t-shaped adapter piece. The t-adapter was connected with a microfluidic chip containing approximately 80,000 CD95-HeLa cells (human cervix carcinoma cell line overexpressing CD95 death receptors). Thereby, cells could be perfused by a mixture of CD95L stock solution and empty medium. For adjusting the CD95L concentration in each step of an experiment, a constant volume of 0.8 ml was infused. This volume comprised varying fractions of CD95L stock solution and empty medium. […] The total dose was set to 400 ng of CD95L according to a stock solution volume of 1.6 ml. Accordingly, cells could be perfused with CD95L at concentrations between zero and the stock concentration. During the experiment, images of the perfused cells were recorded every 3 minutes using the live-cell microscope. […]

For `COc1cccc2c1C(=O)c1c(O)c3c(c(O)c1C2=O)C[C@@](O)(C(=O)CO)C[C@@H]3O[C@H]1C[C@H](N)[C@H](O)[C@H](C)O1` [doxorubicin], the cell death [1] is given as “maximizes cell death”.

In the case of `C#Cc1cccc(Nc2ncnc3cc(OCCOC)c(OCCOC)cc23)c1` [erlotinib], the cell death [1] is listed as “maximizes cell death”.

B1: CD95L: CD95 cell death ligand; binds CD95 death receptors and induces apoptosis (protein, UniProt P48023 130-281, looked up)
Tumor necrosis factor ligand …: QIGHPSPPPEKKELRKVAHLTGKSNSRSMPLEWEDTYGIVLLSGVKYKKGGLVINETGLYFVYSKVYFRGQSCNNLPLSHKVYMRNSKYPQDLVMMEGKMMSYCTTGQMWARSSYLGAVFNLTSADHLYVNVSELSLVNFEESQTFFGLYKL
For B1, the “cell death kinetics (apoptotic cell fractions)” value ([2]; first RL-optimized CD95L concentration trajectory vs constant 50 ng/ml, same total dose 400 ng, 180 minutes, FIG. 13F) was “substantially accelerated cell death kinetics” and the “cell death (apoptotic cell fractions)” value ([2]; optimized CD95L trajectory from second RL iteration vs constant concentration or first-iteration trajectory, total dose 400 ng, FIG. 14G) was “accelerated cell death”.

Source: patent US20220406434A1, “METHOD AND SYSTEM FOR EVALUATING OPTIMIZED CONCENTRATION TRAJECTORIES FOR DRUG ADMINISTRATION” (DEUTSCHES KREBSFORSCHUNGSZENTRUM STIFTUNG DES OEFFENTLICHEN …, priority 2019, published 2022)
